Assay results from ChEMBL document CHEMBL1151902, “Discovery and SAR of cinnolines/quinolines as liver X receptor (LXR) agonists with binding selectivity for LXRbeta” (Bioorg Med Chem, 2009).
Converted amounts (≈) assume the structure as drawn.

Tests used:
[1] = Aqueous solubility of the compound; assay type: physicochemical; details: buffer
[2] = Metabolic stability in mouse liver microsomes assessed as half life; assay type: ADME, Microsome

solubility [1]: 2 µg/mL (≈ 3.82 µM)
half-life [2]: < 5 min
SMILES: Cn1ccc2cccc(COc3cccc(-c4c(Cc5ccccc5)nnc5c(C(F)(F)F)cccc45)c3)c21
